Test results from patent US20140350300A1, “ALISKIREN HEMIFUMARATE, CRYSTAL FORM AND AMORPHOUS SOLID” (DJADA PHARMACEUTICAL SA, priority 2011, published 2014).

What was measured:
[1] = Compressibility test on tablets; format: physicochemical
Protocol: A set of tablets was prepared using different compression forces. A compressibility test was carried out on these.

[2] = Stability test (exposure to humidity, XRPD); format: physicochemical; conditions: 25° C.
Protocol: Stability tests were carried out on Aliskiren hemifumarate, amorphous solid of this invention and Aliskiren hemifumarate, amorphous solid obtained as described in WO2008/061622, maintaining the samples at 25° C., 75% RH. […] The same samples were exposed to 25° C., 60% RH.

SMILES | Rupture strength compared with tablets of amorphous solid obtained as described in WO2008/061622 ([1]; comparison of Tables 7 and 8) | Rupture Strength ([1]; tablet #1, compression strength 11.83 kN) [N] | Rupture Strength ([1]; tablet #2, compression strength 5.83 kN) [N] | Rupture Strength ([1]; tablet #3, compression strength 16.45 kN) [N] | Rupture Strength ([1]; tablet #4, compression strength 10.85 kN) [N] | Rupture Strength ([1]; tablet #5, compression strength 19.43 kN) [N] | Typical nature of the diffractogram (XRPD pattern) after exposure ([2]; 60% RH, 5 days, curve A basal vs curve B, FIG. 15) | Change of physical form of the sample ([2]; 75% RH, after 2 hours) | Rupture Strength ([1]; tablet #1, compression strength 22.27 kN) [N] | Rupture Strength ([1]; tablet #2, compression strength 23.82 kN) [N] | Rupture Strength ([1]; tablet #3, compression strength 24.15 kN) [N] | Rupture Strength ([1]; tablet #4, compression strength 6.80 kN) [N] | Rupture Strength ([1]; tablet #5, compression strength 7.95 kN) [N] | Rupture Strength ([1]; tablet #6, compression strength 10.10 kN) [N] | Rupture Strength ([1]; tablet #7, compression strength 11.55 kN) [N] | Rupture Strength ([1]; tablet #8, compression strength 7.88 kN) [N] | Rupture Strength ([1]; tablet #9, compression strength 10.15 kN) [N] | Rupture Strength ([1]; tablet #10, compression strength 13.18 kN) [N] | Rupture Strength ([1]; tablet #11, compression strength 15.60 kN) [N] | Rupture Strength ([1]; tablet #12, compression strength 14.12 kN) [N]
COCCCOc1cc(C[C@@H](C[C@H](N)[C@@H](O)C[C@H](C(=O)NCC(C)(C)C(N)=O)C(C)C)C(C)C)ccc1OC [(2S,4S,5S,7S)-5-amino-N-(3-amino-2,2-dimethyl-3-oxypropyl)-4-hydroxy-7-[[4-methoxy-3-(3-methoxypropoxy)pheny]methyl]-8-methyl-2-propan-2 ilnonanamide] | higher | 4.5 | 4 | 2 | 4 | 3.5 | lost | changed from solid to viscous liquid form |  |  |  |  |  |  |  |  |  |  |  | 
COCCCOc1cc(C[C@@H](C[C@H](N)[C@@H](O)C[C@H](C(=O)NCC(C)(C)C(N)=O)C(C)C)C(C)C)ccc1OC |  |  |  |  |  |  |  |  | 1.5 | 2 | 1.5 | 2 | 2 | 1.5 | 2.2 | 2.5 | 2 | 2 | 2 | 2
